Assay results reported in patent publication US20170008845A1, “PYRIDINYL CYCLOHEXANECARBOXAMIDE COOLING COMPOUNDS” (Givaudan, S.A., priority 2005, published 2017).
Like-named read-outs stand apart in the source and are kept apart here.

What was measured:
mouth and lips = details: 50 mL of 1% solution in alcohol per 1 liter mouthwash (with peppermint oil); 30 mL swished, gargled, spit out
Procedure: All the ingredients are mixed. 30 mL of obtained solution is put in the mouth, swished around, gargled and spit out.

[1] = test system: panelists (cooling sensation in the mouth); experiment: Panel tasting of aqueous solutions: cooling intensity matched to menthol 2 ppm, and longevity; format: in vivo; details: for Longevity (time until no cooling could be sensed in the mouth): aqueous solution at the chosen concentration of Table 2; for Concentration with cooling intensity similar or slightly higher than menthol at 2 ppm: aqueous solution, tasted by a small panel
Source text: The same panel is asked to taste these solutions at the chosen concentrations and to record the cooling intensity at regular time intervals until no cooling could be sensed in the mouth.

[2] = test system: panelists (cooling sensation in the mouth); details: cooling intensity similar to or slightly higher than menthol at 2 ppm
panelist's mouth [3] = details: 1.5 mg in 355 mL can of clear lemon/lime soda
Procedure: 1.5 mg of the compound of example 2 is dissolved in a 355 mL (12 fl oz.) can of clear lemon/lime soda.

panelist's mouth [4] = details: 2.500 g of 2% solution in propylene glycol in 97 g opaque toothgel (with peppermint oil); teeth brushed, mouth rinsed
Source text: The chemicals are mixed in the toothgel, a piece of toothgel is put on a toothbrush and a panelist's teeth are brushed. The mouth is rinsed with water and the water is spit out.

Row | SMILES | Cooling sensation in mouthwash (mouth and lips) | Longevity (time until no cooling could be sensed in the mouth) [1] | Concentration with cooling intensity similar or slightly higher than menthol at 2 ppm [1] | Isointensive concentration [2] | Isointensive concentration ([2]; listed as m = 0, 4) | After-taste in beverage (panelist's mouth [3]) | Cooling sensation in beverage (panelist's mouth [3]) | Isointensive concentration ([2]; listed as m = 2, 2 or 6) | Cooling sensation in toothgel (panelist's mouth [4])
1 | CC1CCC(C(C)C)C(C(=O)Nc2ccncc2)C1 (centres unmarked) [Example 1, N-(4-pyridinyl) p-menthanecarboxamide] | icy-cool sensation is felt in every area of the mouth as well as lips | 50 min | 0.5 ppm | 0.67 ppm | 0.5 ppm |  |  |  | 
2 | CC(C)[C@@H]1CC[C@@H](C)C[C@H]1C(=O)NCCc1ccccn1 [Example 2, (1R,2S,5R)-2-isopropyl-5-methyl-N-(2-(pyridin-2-yl)ethyl)cyclohexanecarboxamide] |  | 60 min | 0.02 ppm | 0.05 ppm |  | No unpleasant after-taste | agreeable delayed cooling sensation in the mouth with no throat burning | 0.02 ppm | intense cooling sensation is felt by the panelist in all areas of the mouth
3 | CC(C)C(C)(C(=O)NCCc1ccccn1)C(C)C [Example 3, 2-isopropyl-2,3-dimethyl-N-(2-(pyridin-2-yl)ethyl)butanamide] |  |  | 0.4 ppm |  |  |  |  |  | 
4 | CCNC(=O)C1CC(C)CCC1C(C)C (centres unmarked) [N-ethyl p-menthanecarboxamide (WS-3), N-ethyl p-menthanecarboxamide, reference compound] |  | 57 min | 1.5 ppm |  |  |  |  |  | 
5 | CC(C)[C@@H]1CC[C@@H](C)C[C@H]1O [l-Menthol, reference compound] |  | 35 min | 2.0 ppm |  |  |  |  |  | 
